Measurements: patent US20230020999A1, “ANTI-CD30 ANTIBODY-DRUG CONJUGATES AND THEIR USE FOR THE TREATMENT OF HIV INFECTION” (priority 2019, published 2023)
Non-standard residues stand in square brackets, D forms with d. Residues, ends and D or L forms follow the SMILES beside them. *: point of attachment. Dolaproine = CO[C@@H]([C@@H]1CCCN1)[C@@H](C)C(=O)O; Dil = CC[C@H](C)[C@H](NC)[C@@H](CC(=O)O)OC; X1 = C[C@@H](N*)[C@@H](O)c1ccccc1; NMeV = CN[C@H](C(=O)O)C(C)C

Legend:
[1] = biological target: permeability glycoprotein (Pgp) (Homo sapiens, UniProt P08183); conditions: cited from earlier work
Chain of permeability glycoprotein (Pgp) (P08183 whole entry): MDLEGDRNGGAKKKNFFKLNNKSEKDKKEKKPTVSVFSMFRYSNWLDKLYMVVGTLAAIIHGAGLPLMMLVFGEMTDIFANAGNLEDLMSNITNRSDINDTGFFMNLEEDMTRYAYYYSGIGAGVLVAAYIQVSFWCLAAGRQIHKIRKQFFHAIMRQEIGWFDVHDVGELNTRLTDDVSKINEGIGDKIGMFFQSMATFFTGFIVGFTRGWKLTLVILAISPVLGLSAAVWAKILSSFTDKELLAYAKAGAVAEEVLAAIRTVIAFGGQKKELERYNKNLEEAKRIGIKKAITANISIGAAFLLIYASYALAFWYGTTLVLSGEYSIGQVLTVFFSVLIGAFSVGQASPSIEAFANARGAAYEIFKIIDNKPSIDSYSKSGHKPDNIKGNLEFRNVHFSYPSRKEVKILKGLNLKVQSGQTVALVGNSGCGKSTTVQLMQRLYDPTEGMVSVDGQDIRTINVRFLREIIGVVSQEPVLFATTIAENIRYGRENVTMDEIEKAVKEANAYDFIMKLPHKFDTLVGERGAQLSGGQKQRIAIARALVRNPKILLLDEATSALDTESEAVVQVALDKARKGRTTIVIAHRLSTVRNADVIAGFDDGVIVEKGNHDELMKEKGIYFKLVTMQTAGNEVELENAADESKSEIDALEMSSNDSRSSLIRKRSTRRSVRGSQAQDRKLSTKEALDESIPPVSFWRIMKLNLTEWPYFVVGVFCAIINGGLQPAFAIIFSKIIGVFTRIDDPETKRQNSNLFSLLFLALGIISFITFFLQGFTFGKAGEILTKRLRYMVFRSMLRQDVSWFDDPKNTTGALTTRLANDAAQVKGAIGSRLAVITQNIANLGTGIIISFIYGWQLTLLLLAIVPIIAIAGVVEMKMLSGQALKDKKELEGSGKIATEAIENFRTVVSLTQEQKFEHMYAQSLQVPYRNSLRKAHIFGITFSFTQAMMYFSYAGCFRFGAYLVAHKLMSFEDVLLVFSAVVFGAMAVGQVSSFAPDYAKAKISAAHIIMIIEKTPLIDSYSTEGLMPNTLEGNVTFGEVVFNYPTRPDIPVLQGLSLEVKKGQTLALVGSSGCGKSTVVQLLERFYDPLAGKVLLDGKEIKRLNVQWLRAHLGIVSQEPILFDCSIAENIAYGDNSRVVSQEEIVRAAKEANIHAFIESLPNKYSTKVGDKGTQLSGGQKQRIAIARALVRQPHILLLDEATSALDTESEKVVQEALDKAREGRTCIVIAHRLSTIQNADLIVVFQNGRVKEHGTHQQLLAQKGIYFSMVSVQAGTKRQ

[2] = system: memory CD8 T cells; experiment: Free MMAE titration on activated T cell populations, viable cell counts; assay type: cell-based; conditions: Memory CDS; CD3/CD28 beads and IL-2 (10 ng/ml), 4 days; cell counts relative to untreated control
Experimental: (§1) To evaluate the effect of free MMAE on the various T cell populations, naïve (CD45RA+, CD45RO−) and memory (CD45RA−, CD45RO+) CD4 and CD8 T cells and CD25^hi CD127^lo T regulatory cells were enriched from healthy donor leukopaks and activated with CD3/CD28 beads and IL-2 (10 ng/ml) in round-bottom 96-well tissue culture plates for 4 days with a titration of free monomethyl auristatin E (MMAE). […] Data are represented as cell counts relative to untreated control.

[3] = system: naïve CD8 T cells; experiment: as above; assay type: cell-based; conditions: Naïve CDS; CD3/CD28 beads and IL-2 (10 ng/ml), 4 days; cell counts relative to untreated control
Experimental: as §1

[4] = system: naïve CD4 T cells; experiment: as above; assay type: cell-based; conditions: CD3/CD28 beads and IL-2 (10 ng/ml), 4 days, cell counts relative to untreated control
Experimental: as §1

[5] = system: memory CD4 T cells; experiment: as above; assay type: cell-based; conditions: CD3/CD28 beads and IL-2 (10 ng/ml), 4 days, cell counts relative to untreated control
Experimental: as §1

[6] = system: T regulatory cells (Treg); experiment: as above; assay type: cell-based; conditions: CD3/CD28 beads and IL-2 (10 ng/ml), 4 days, cell counts relative to untreated control
Experimental: as §1

[7] = biological target: CYP3A4 (Homo sapiens, UniProt P08684); conditions: cited from earlier work
Chain of CYP3A4 (P08684 whole entry): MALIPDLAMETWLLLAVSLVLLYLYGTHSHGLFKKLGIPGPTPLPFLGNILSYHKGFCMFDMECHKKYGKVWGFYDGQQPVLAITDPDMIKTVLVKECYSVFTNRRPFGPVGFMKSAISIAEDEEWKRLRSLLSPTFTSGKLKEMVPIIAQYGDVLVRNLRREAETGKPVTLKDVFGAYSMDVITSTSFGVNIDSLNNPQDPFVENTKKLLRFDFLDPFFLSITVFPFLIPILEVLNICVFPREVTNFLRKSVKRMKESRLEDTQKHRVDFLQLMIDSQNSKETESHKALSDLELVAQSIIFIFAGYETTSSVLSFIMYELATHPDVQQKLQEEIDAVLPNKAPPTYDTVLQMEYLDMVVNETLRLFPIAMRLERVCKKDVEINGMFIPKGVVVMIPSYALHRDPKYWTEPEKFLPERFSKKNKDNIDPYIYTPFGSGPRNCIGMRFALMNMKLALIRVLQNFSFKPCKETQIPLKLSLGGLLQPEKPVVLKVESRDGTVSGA

[8] = system: Hodgkin disease xenograft; conditions: SCID mouse xenograft models of Hodgkin disease; cited from earlier work
[9] = system: CD30+ cell lines; conditions: in vitro; cited from earlier work
[10] = system: Treg; experiment: Effect of BV on activated T cell viability (FACS); assay type: cell-based
Experimental: (§2) To evaluate the effect of BV on activated T cell viability, naïve, memory, and Treg subsets were driven to proliferate in vitro in the presence of BV or control antibody-drug conjugate (ADC). Briefly, T cell subsets were mixed with CD3/CD28 beads (4:1)+IL-2 10 ng/ml in RPMI 10% FCS and distributed −2.0×10^4 cells/well into a 96-well round-bottom plate. A titration of BV or control IgG-MMAE was added to replicate wells, for a final volume of 200 μl, and plates were incubated at 37° C. for 4 days. On the final day of the assay, cells were stained with Zombie® Aqua Viability Dye and a non-competing monoclonal μCD30-PE (Biolegend) for FACS analysis. […] Cell counts are shown as the percent of untreated control.

[11] = system: memory CD4 T cells; experiment: Effect of BV on activated T cell viability (FACS); assay type: cell-based
Experimental: as §2

[12] = system: Tregs; conditions: subjects with CD30+ lymphomas; cited from earlier work
[13] = CD3/CD28 beads + IL-2, BV titration, 4 days, n=4, FIG. 1A

Q: Which results are given for `CC[C@H](C)[C@@H]([C@@H](CC(=O)N1CCC[C@H]1[C@H](OC)[C@@H](C)C(=O)N[C@H](C)[C@@H](O)c1ccccc1)OC)N(C)C(=O)[C@@H](NC(=O)[C@@H](NC)C(C)C)C(C)C` [MMAE, monomethyl auristatin E] (H-[NMeV]V[Dil][Dolaproine]-X1)?
A: Pgp substrate [1]: known Pgp substrate; IC50 [2]: 0.77 nM; IC50 [3]: 1.96 nM; IC50 [4]: 1.13 nM; IC50 [5]: 0.55 nM; IC50 [6]: 0.43 nM; metabolism [7]: primarily metabolized by CYP3A4

Q: Which results are given for cAC10?
A: antitumor activity [8]: pronounced antitumor activity; growth of CD30+ cell lines [9]: induces growth arrest

B1: brentuximab vedotin (conjugate)
VH: QIQLQQSGPEVVKPGASVKISCKASGYTFTDYYITWVKQKPGQGLEWIGWIYPGSGNTKYNEKFKGKATLTVDTSSSTAFMQLSSLTSEDTAVYFCANYGNYWFAYWGQGTQVTVSA
VL: DIVLTQSPASLAVSLGQRATISCKASQSVDFDGDSYMNWYQQKPGQPPKVLIYAASNLESGIPARFSGSGSGTDFTLNIHPVEEEDAATYYCQQSNEDPWTFGGGTKLEIK
Q: For B1, which “total viable Treg cell numbers” value [10, 13] is on record?
A: dose-dependent reduction

Q: What about the “numbers of viable CD30+ cells” value ([10]; CD30+ Treg, end of 4-day assay, FIG. 1B) of the same molecule?
A: enhanced depletion

Q: And the “total viable memory CD4 T cell numbers” value [11, 13]?
A: dose-dependent reduction

Q: What about the “numbers of viable CD30+ cells” value ([11]; CD30+ memory CD4 T cells, end of 4-day assay, FIG. 1B) of the same molecule?
A: enhanced depletion

Q: And the “change in Tregs” value [12]?
A: reduction in Tregs
